Here are results for 31 compounds from patent US12251459B2, “Compositions, formulations, and methods for hair treatment” (Oddity Labs, LLC, priority 2022, dated 2025).

The structures appear in SMILES notation.

The test system of the test is human hair follicle dermal papilla cells (hFDPC). As to the kind of experiment: Human follicle dermal papilla cells (hFDPC) proliferation assay. The class given is cell-based. The conditions noted are these: hFDPCs supplemented with BIO, BMP-2 and FGFβ. An excerpt: In Table 8, A represents less than 20% of increased proliferation of hFDPCs, B represents 20-40%, and C represents larger than 40% of increased proliferation of hFDPCs.
Turning to `C=CCc1cc(/C=C2\C(=O)NC(=O)N(c3ccc(C(C)C)cc3)C2=O)cc(OC)c1O` [I-1], the “Percent Increase Proliferation of hFDPCs (%)” value is “A (A represents less than 20% of increased proliferation of hFDPCs)”.
On to `Cc1ccc(C(=O)N2CCN(c3nnc(-c4ccc(C)cc4)c4ccccc34)CC2)cc1` [II-2, Methanone, (4-methylphenyl)[4-[4-(4-methylphenyl)-1-phthalazinyl]-1-piperazinyl]-], for which the “Percent Increase Proliferation of hFDPCs (%)” value is recorded as “B (B represents 20-40%)”.
The entry for `NC(=O)c1ccc(NC(=O)CCCc2nc(-c3ccccc3)no2)cc1` [VII-5, 1,2,4-Oxadiazole-5-butanamide, N-[4-(aminocarbonyl)phenyl]-3-phenyl-] is “A (A represents less than 20% of increased proliferation of hFDPCs)”.
As for `Cc1cccc(Cn2cnc(NC(=O)c3cc(-c4cccnc4)nc4ccc(C)cc34)n2)c1` [III-2, 4-Quinolinecarboxamide, 6-methyl-N-[1-[(3-methylphenyl)methyl]-1H-1,2,4-triazol-3-yl]-2-(3-pyridinyl)-], the “Percent Increase Proliferation of hFDPCs (%)” value is “A (A represents less than 20% of increased proliferation of hFDPCs)”.
In the case of `C=CCc1cc(C=C2C(=O)NC(=S)NC2=O)cc(OC)c1O` [I-9, 4,6(1H,5H)-Pyrimidinedione, dihydro-5-[[4-hydroxy-3-methoxy-5-(2-propen-1-yl)phenyl]methylene]-2-thioxo-], the “Percent Increase Proliferation of hFDPCs (%)” value was “B (B represents 20-40%)”.
Turning to `COc1ccc(S(=O)(=O)Nc2ccc(S(=O)(=O)NCCc3ccccc3)cc2)cc1` [VI-5, Benzenesulfonamide, 4-methoxy-N-[4-[[(2-phenylethyl)amino]sulfonyl]phenyl]-], the “Percent Increase Proliferation of hFDPCs (%)” value is “A (A represents less than 20% of increased proliferation of hFDPCs)”.
Turning to `COc1ccc(N2CCN(C(=O)c3cc(-c4cccs4)nc4ccccc34)CC2)cc1` [III-1, Methanone, [4-(4-methoxyphenyl)-1-piperazinyl][2-(2-thienyl)-4-quinolinyl]-], the “Percent Increase Proliferation of hFDPCs (%)” value is “A (A represents less than 20% of increased proliferation of hFDPCs)”.
Consider `Oc1c2c(c(O)n1C1CCCCC1)CC=CC2` [VII-13, 1H-Isoindole-1,3(2H)-dione, 2-cyclohexyl-3a,4,7,7a-tetrahydro-], for which the “Percent Increase Proliferation of hFDPCs (%)” value was “A (A represents less than 20% of increased proliferation of hFDPCs)”.
Regarding `Cc1ccc(Cn2ncc3c(N4CCCC4)ncnc32)cc1` [V-1, 1H-Pyrazolo[3,4-d] pyrimidine, 1-[(4-methylphenyl)methyl]-4-(1-pyrrolidinyl)-], the “Percent Increase Proliferation of hFDPCs (%)” value was “A (A represents less than 20% of increased proliferation of hFDPCs)”.
Take `COc1ccccc1-n1c(SCc2cc(=O)oc3cc(O)ccc23)nc2ccccc2c1=O` [IV-3, 4(3H)-Quinazolinone, 2-[[(7-hydroxy-2-oxo-2H-1-benzopyran-4-yl)methyl]thio]-3-(2-methoxyphenyl)-]: the “Percent Increase Proliferation of hFDPCs (%)” value is reported as “B (B represents 20-40%)”.
Take `Cc1cc(C)n(Cc2ccc(NC(=O)c3cc(-c4ccc(C)c(C)c4)nc4ccccc34)cc2)n1` [III-3, 4-Quinolinecarboxamide, 2-(3,4-dimethylphenyl)-N-[4-[(3,5-dimethyl-1H-pyrazol-1-yl)methyl]phenyl]-]: the “Percent Increase Proliferation of hFDPCs (%)” value was “B (B represents 20-40%)”.
With `C=CCc1cc(/C=C2\C(=O)NC(=O)N(C)C2=O)cc(OC)c1O` [I-16], the “Percent Increase Proliferation of hFDPCs (%)” value is recorded as “A (A represents less than 20% of increased proliferation of hFDPCs)”.
Regarding `C=CCc1cc(/C=C2\C(=O)NC(=O)N(c3cc(C)cc(C)c3)C2=O)cc(OC)c1O` [I-3, 2,4,6(1H,3H,5H)-Pyrimidinetrione, 1-(3,5-dimethylphenyl)-5-[[4-hydroxy-3-methoxy-5-(2-propen-1-yl)phenyl]methylene]-], the “Percent Increase Proliferation of hFDPCs (%)” value is “A (A represents less than 20% of increased proliferation of hFDPCs)”.
For `O=C1CNCc2[nH]c3ccccc3c2N1c1ccccc1` [VII-10, 1,4-Diazepino[6,5-b] indol-2(1H)-one, 3,4,5,6-tetrahydro-1-phenyl-], the “Percent Increase Proliferation of hFDPCs (%)” value is “B (B represents 20-40%)”.
For the compound `Cc1ccccc1Cn1nc(C)c(NC(=O)c2csc3ccccc23)c1C` [VII-26, Benzo[b]thiophene-3-carboxamide, N-[3,5-dimethyl-1-[(2-methylphenyl)methyl]-1H-pyrazol-4-yl]-], the “Percent Increase Proliferation of hFDPCs (%)” value was “A (A represents less than 20% of increased proliferation of hFDPCs)”.
For `N#Cc1ccc(S(=O)(=O)N2CCC(C(=O)N3CCN(Cc4ccc5c(c4)OCO5)CC3)CC2)cc1` [VI-2, Benzonitrile, 4-[[4-[[4-(1,3-benzodioxol-5-ylmethyl)-1-piperazinyl]carbonyl]-1-piperidinyl]sulfonyl]-], the “Percent Increase Proliferation of hFDPCs (%)” value was “B (B represents 20-40%)”.
The entry for `C=CCc1cc(/C=C2\C(=O)NC(=O)N(c3ccc(C)c(C)c3)C2=O)cc(OC)c1O` [I-4] is “A (A represents less than 20% of increased proliferation of hFDPCs)”.
On to `CCCC(=O)N1CCN(c2nnc(-c3ccc(C)cc3)c3ccccc23)CC1` [II-6, 1-Butanone, 1-[4-[4-(4-methylphenyl)-1-phthalazinyl]-1-piperazinyl]-], for which the “Percent Increase Proliferation of hFDPCs (%)” value was “B (B represents 20-40%)”.
As for `CCN(Cc1ccccc1)C(=O)c1ccc(C(=O)N(CC)Cc2ccccc2)cc1` [VII-20, 1,4-Benzenedicarboxamide, N^1,N^4-diethyl-N^1, N^4-bis(phenylmethyl)-], the “Percent Increase Proliferation of hFDPCs (%)” value is reported as “A (A represents less than 20% of increased proliferation of hFDPCs)”.
`C=CCOc1ccc(/C=C2/C(=O)NC(=O)N(CC=C)C2=O)cc1OC` [I-7]: the “Percent Increase Proliferation of hFDPCs (%)” value is “A (A represents less than 20% of increased proliferation of hFDPCs)”.
With `C=CCc1cc(/C=C2\C(=O)NC(=S)N(C)C2=O)cc(OC)c1OCC` [I-10], the “Percent Increase Proliferation of hFDPCs (%)” value is listed as “A (A represents less than 20% of increased proliferation of hFDPCs)”.
Consider `CN1C(=O)NC(=O)/C(=C/c2cnc(N(C)C)nc2)C1=O` [I-13, 2,4,6(1H,3H,5H)-Pyrimidinetrione, 5-[[2-(dimethylamino)-5-pyrimidinyl]methylene]-1-methyl-], for which the “Percent Increase Proliferation of hFDPCs (%)” value was “A (A represents less than 20% of increased proliferation of hFDPCs)”.
For the compound `COc1cc(/C=C2\C(=O)NC(=O)N(Cc3ccccc3)C2=O)cc(OC)c1O` [I-5, 2,4,6(1H,3H,5H)-Pyrimidinetrione, 5-[(4-hydroxy-3,5-dimethoxyphenyl)methylene]-1-(phenylmethyl)-], the “Percent Increase Proliferation of hFDPCs (%)” value is reported as “B (B represents 20-40%)”.
Consider `CCOC(=O)c1cnn(-c2cccc(NC(=O)C3CCN(c4ncccn4)CC3)c2)c1C` [VII-8, 1H-Pyrazole-4-carboxylic acid, 5-methyl-1-[3-[[[1-(2-pyrimidinyl)-4-piperidinyl]carbonyl]amino]phenyl]-, ethyl ester], for which the “Percent Increase Proliferation of hFDPCs (%)” value is reported as “A (A represents less than 20% of increased proliferation of hFDPCs)”.
For the compound `NC1=NC2(CCCCC2)n2c(nc3ccccc32)N1` [VII-11, Spiro[cyclohexane-1, 4′(3′H)-[1,3,5]triazino[1,2-a]benzimidazol]-2′-amine], the “Percent Increase Proliferation of hFDPCs (%)” value is on record as “A (A represents less than 20% of increased proliferation of hFDPCs)”.
With `O=C(O)CC1SC(NN=Cc2ccc(OS(=O)(=O)c3ccc([N+](=O)[O-])cc3)cc2)=NC1=O` (stereo not shown) [VI-6, 5-Thiazoleacetic acid, 4,5-dihydro-2-[2-[[4-[[(4-nitrophenyl)sulfonyl]oxy]phenyl]methylene] hydrazinyl]-4-oxo-], the “Percent Increase Proliferation of hFDPCs (%)” value is listed as “A (A represents less than 20% of increased proliferation of hFDPCs)”.
As for `COc1ccc(S(=O)(=O)N2CCC(C(=O)N3CCN(Cc4ccc5c(c4)OCO5)CC3)CC2)cc1C` [VI-3, Methanone, [4-(1,3-benzodioxol-5-ylmethyl)-1-piperazinyl][1-[(4-methoxy-3-methylphenyl)sulfonyl]-4-piperidinyl]-], the “Percent Increase Proliferation of hFDPCs (%)” value was “B (B represents 20-40%)”.
Turning to `CC12C=CC(=O)C=C1CCC1C2C(O)CC2(C)C1CC[C@]2(O)C(=O)COC(=O)CCC(=O)O` (stereo partly drawn) [VII-19, Pregna-1,4-diene-3, 20-dione, 21-(3-carboxy-1-oxopropoxy)-11,17-dihydroxy-, (11β)-], the “Percent Increase Proliferation of hFDPCs (%)” value was “A (A represents less than 20% of increased proliferation of hFDPCs)”.
The entry for `CC(C)(C)Nc1nnc(SCc2cc(=O)oc3cc(O)ccc23)s1` [IV-1, 2H-1-Benzopyran-2-one, 4-[[[5-[(1,1-dimethylethyl)amino]-1,3,4-thiadiazol-2-yl]thio]methyl]-7-hydroxy-] is “B (B represents 20-40%)”; for `O=C1Nc2ccccc2SC1CC(=O)N1CCN(C(c2ccccc2)c2ccccc2)CC1` (stereo not shown) [VII-17, 2H-1,4-Benzothiazin-3(4H)-one, 2-[2-[4-(diphenylmethyl)-1-piperazinyl]-2-oxoethyl]-] it is “A (A represents less than 20% of increased proliferation of hFDPCs)”; for `C=CCc1cc(C=C2C(=O)NC(=S)NC2=O)cc(OCC)c1O` [I-8] it is “B (B represents 20-40%)”.
